{"source": "PubChem BioAssay (NCI)", "assay_in_all_cases": "NCI-60 cell line screen, 48 h", "key": {"786-0 renal": {"test_system": "786-0 renal"}, "A498 renal": {"test_system": "A498 renal"}, "A549 NSCLC": {"test_system": "A549 NSCLC"}, "ACHN renal": {"test_system": "ACHN renal"}, "BT-549 breast": {"test_system": "BT-549 breast"}, "CAKI-1 renal": {"test_system": "CAKI-1 renal"}, "CCRF-CEM leukemia": {"test_system": "CCRF-CEM leukemia"}, "COLO 205 colon": {"test_system": "COLO 205 colon"}, "DU-145 prostate": {"test_system": "DU-145 prostate"}, "EKVX NSCLC": {"test_system": "EKVX NSCLC"}, "HCT-116 colon": {"test_system": "HCT-116 colon"}, "HCT-15 colon": {"test_system": "HCT-15 colon"}, "HL-60(TB) leukemia": {"test_system": "HL-60(TB) leukemia"}, "HOP-62 NSCLC": {"test_system": "HOP-62 NSCLC"}, "HOP-92 NSCLC": {"test_system": "HOP-92 NSCLC"}, "HS 578T breast": {"test_system": "HS 578T breast"}, "HT29 colon": {"test_system": "HT29 colon"}, "IGROV1 ovarian": {"test_system": "IGROV1 ovarian"}, "K-562 leukemia": {"test_system": "K-562 leukemia"}, "KM12 colon": {"test_system": "KM12 colon"}, "LOX IMVI melanoma": {"test_system": "LOX IMVI melanoma"}, "M14 melanoma": {"test_system": "M14 melanoma"}, "MALME-3M melanoma": {"test_system": "MALME-3M melanoma"}, "MCF7 breast": {"test_system": "MCF7 breast"}, "MDA-MB-231 breast": {"test_system": "MDA-MB-231 breast"}, "MDA-MB-435": {"test_system": "MDA-MB-435"}, "MDA-N": {"test_system": "MDA-N"}, "MOLT-4 leukemia": {"test_system": "MOLT-4 leukemia"}, "NCI-H226 lung": {"test_system": "NCI-H226 lung"}, "NCI-H23 lung": {"test_system": "NCI-H23 lung"}, "NCI-H460 lung": {"test_system": "NCI-H460 lung"}, "NCI-H522 lung": {"test_system": "NCI-H522 lung"}, "NCI/ADR-RES ovarian": {"test_system": "NCI/ADR-RES ovarian"}, "OVCAR-3 ovarian": {"test_system": "OVCAR-3 ovarian"}, "OVCAR-4 ovarian": {"test_system": "OVCAR-4 ovarian"}, "OVCAR-5 ovarian": {"test_system": "OVCAR-5 ovarian"}, "OVCAR-8 ovarian": {"test_system": "OVCAR-8 ovarian"}, "PC-3 prostate": {"test_system": "PC-3 prostate"}, "RPMI-8226 leukemia": {"test_system": "RPMI-8226 leukemia"}, "RXF 393 renal": {"test_system": "RXF 393 renal"}, "SF-268 CNS": {"test_system": "SF-268 CNS"}, "SF-295 CNS": {"test_system": "SF-295 CNS"}, "SF-539 CNS": {"test_system": "SF-539 CNS"}, "SK-MEL-2 melanoma": {"test_system": "SK-MEL-2 melanoma"}, "SK-MEL-28 melanoma": {"test_system": "SK-MEL-28 melanoma"}, "SK-MEL-5 melanoma": {"test_system": "SK-MEL-5 melanoma"}, "SK-OV-3 ovarian": {"test_system": "SK-OV-3 ovarian"}, "SN12C renal": {"test_system": "SN12C renal"}, "SNB-19 CNS": {"test_system": "SNB-19 CNS"}, "SNB-75 CNS": {"test_system": "SNB-75 CNS"}, "SR leukemia": {"test_system": "SR leukemia"}, "SW-620 colon": {"test_system": "SW-620 colon"}, "T-47D breast": {"test_system": "T-47D breast"}, "TK-10 renal": {"test_system": "TK-10 renal"}, "U251 CNS": {"test_system": "U251 CNS"}, "UACC-257 melanoma": {"test_system": "UACC-257 melanoma"}, "UACC-62 melanoma": {"test_system": "UACC-62 melanoma"}, "UO-31 renal": {"test_system": "UO-31 renal"}}, "note": "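Following 48 hours of exposure in 96-well plates, responses at five concentrations were used to interpolate endpoints linearly. TGI: total growth inhibition.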"}
{"smiles": "N#Cc1ccc(OC(=O)c2ccc(N=C(N)N)cc2)cc1", "values": [{"measurement": "TGI", "setting": "786-0 renal", "result": "> 100", "unit": "µM"}, {"measurement": "TGI", "setting": "A498 renal", "result": "> 100", "unit": "µM"}, {"measurement": "TGI", "setting": "A549 NSCLC", "result": "> 100", "unit": "µM"}, {"measurement": "TGI", "setting": "ACHN renal", "result": "> 100", "unit": "µM"}, {"measurement": "TGI", "setting": "BT-549 breast", "result": "> 100", "unit": "µM"}, {"measurement": "TGI", "setting": "CAKI-1 renal", "result": "> 100", "unit": "µM"}, {"measurement": "TGI", "setting": "CCRF-CEM leukemia", "result": 54.8, "unit": "µM"}, {"measurement": "TGI", "setting": "COLO 205 colon", "result": "> 100", "unit": "µM"}, {"measurement": "TGI", "setting": "DU-145 prostate", "result": "> 100", "unit": "µM"}, {"measurement": "TGI", "setting": "EKVX NSCLC", "result": "> 100", "unit": "µM"}, {"measurement": "TGI", "setting": "HCT-116 colon", "result": "> 100", "unit": "µM"}, {"measurement": "TGI", "setting": "HCT-15 colon", "result": "> 100", "unit": "µM"}, {"measurement": "TGI", "setting": "HL-60(TB) leukemia", "result": "> 100", "unit": "µM"}, {"measurement": "TGI", "setting": "HOP-62 NSCLC", "result": "> 100", "unit": "µM"}, {"measurement": "TGI", "setting": "HOP-92 NSCLC", "result": "> 100", "unit": "µM"}, {"measurement": "TGI", "setting": "HS 578T breast", "result": "> 100", "unit": "µM"}, {"measurement": "TGI", "setting": "HT29 colon", "result": "> 100", "unit": "µM"}, {"measurement": "TGI", "setting": "IGROV1 ovarian", "result": "> 100", "unit": "µM"}, {"measurement": "TGI", "setting": "K-562 leukemia", "result": "> 100", "unit": "µM"}, {"measurement": "TGI", "setting": "KM12 colon", "result": "> 100", "unit": "µM"}, {"measurement": "TGI", "setting": "LOX IMVI melanoma", "result": "> 100", "unit": "µM"}, {"measurement": "TGI", "setting": "M14 melanoma", "result": "> 100", "unit": "µM"}, {"measurement": "TGI", "setting": "MALME-3M melanoma", "result": "> 100", "unit": "µM"}, {"measurement": "TGI", "setting": "MCF7 breast", "result": "> 100", "unit": "µM"}, {"measurement": "TGI", "setting": "MDA-MB-231 breast", "result": "> 100", "unit": "µM"}, {"measurement": "TGI", "setting": "MDA-MB-435", "result": "> 100", "unit": "µM"}, {"measurement": "TGI", "setting": "MDA-N", "result": "> 100", "unit": "µM"}, {"measurement": "TGI", "setting": "MOLT-4 leukemia", "result": "> 100", "unit": "µM"}, {"measurement": "TGI", "setting": "NCI-H226 lung", "result": "> 100", "unit": "µM"}, {"measurement": "TGI", "setting": "NCI-H23 lung", "result": "> 100", "unit": "µM"}, {"measurement": "TGI", "setting": "NCI-H460 lung", "result": "> 100", "unit": "µM"}, {"measurement": "TGI", "setting": "NCI-H522 lung", "result": "> 100", "unit": "µM"}, {"measurement": "TGI", "setting": "NCI/ADR-RES ovarian", "result": "> 100", "unit": "µM"}, {"measurement": "TGI", "setting": "OVCAR-3 ovarian", "result": "> 100", "unit": "µM"}, {"measurement": "TGI", "setting": "OVCAR-4 ovarian", "result": "> 100", "unit": "µM"}, {"measurement": "TGI", "setting": "OVCAR-5 ovarian", "result": "> 100", "unit": "µM"}, {"measurement": "TGI", "setting": "OVCAR-8 ovarian", "result": "> 100", "unit": "µM"}, {"measurement": "TGI", "setting": "PC-3 prostate", "result": "> 100", "unit": "µM"}, {"measurement": "TGI", "setting": "RPMI-8226 leukemia", "result": "> 100", "unit": "µM"}, {"measurement": "TGI", "setting": "RXF 393 renal", "result": "> 100", "unit": "µM"}, {"measurement": "TGI", "setting": "SF-268 CNS", "result": "> 100", "unit": "µM"}, {"measurement": "TGI", "setting": "SF-295 CNS", "result": "> 100", "unit": "µM"}, {"measurement": "TGI", "setting": "SF-539 CNS", "result": "> 100", "unit": "µM"}, {"measurement": "TGI", "setting": "SK-MEL-2 melanoma", "result": "> 100", "unit": "µM"}, {"measurement": "TGI", "setting": "SK-MEL-28 melanoma", "result": "> 100", "unit": "µM"}, {"measurement": "TGI", "setting": "SK-MEL-5 melanoma", "result": "> 100", "unit": "µM"}, {"measurement": "TGI", "setting": "SK-OV-3 ovarian", "result": "> 100", "unit": "µM"}, {"measurement": "TGI", "setting": "SN12C renal", "result": "> 100", "unit": "µM"}, {"measurement": "TGI", "setting": "SNB-19 CNS", "result": "> 100", "unit": "µM"}, {"measurement": "TGI", "setting": "SNB-75 CNS", "result": "> 100", "unit": "µM"}, {"measurement": "TGI", "setting": "SR leukemia", "result": "> 100", "unit": "µM"}, {"measurement": "TGI", "setting": "SW-620 colon", "result": "> 100", "unit": "µM"}, {"measurement": "TGI", "setting": "T-47D breast", "result": "> 100", "unit": "µM"}, {"measurement": "TGI", "setting": "TK-10 renal", "result": "> 100", "unit": "µM"}, {"measurement": "TGI", "setting": "U251 CNS", "result": "> 100", "unit": "µM"}, {"measurement": "TGI", "setting": "UACC-257 melanoma", "result": "> 100", "unit": "µM"}, {"measurement": "TGI", "setting": "UACC-62 melanoma", "result": "> 100", "unit": "µM"}, {"measurement": "TGI", "setting": "UO-31 renal", "result": "> 100", "unit": "µM"}]}
